# Laboratory results as given in PMC4508061, “Selectivity Profiling and Biological Activity of Novel β-Carbolines as Potent and Selective DYRK1 Kinase Inhibitors” (PLoS ONE, 2015).
# Like-named read-outs stand apart in the source and are kept apart here.
# Legend:
# HeLa cells = assay: Cell viability XTT assay; type: cell-based; conditions: up to 10 μM, 3 days
# Cell viability XTT assay [1] = type: cell-based; conditions: human, HeLa cells, read-out: Viability of treated cells relative to untreated control
# MKNK1 = MKNK1 (Homo sapiens, UniProt Q9BUB5); assay: ProQinase radiometric kinase panel; conditions: mean of 2 exp.
# EPHA4 = EPHA4 (Homo sapiens, UniProt P54764); assay: ProQinase radiometric kinase panel; conditions: mean of 2 exp.
# MET = MET (Homo sapiens, UniProt P08581); assay: ProQinase radiometric kinase panel; conditions: mean of 2 exp.
# PDGFR-beta = PDGFR-beta (Homo sapiens, UniProt P09619); assay: ProQinase radiometric kinase panel; conditions: mean of 2 exp.
# RPS6KA4 = RPS6KA4 (Homo sapiens, UniProt O75676); assay: ProQinase radiometric kinase panel; conditions: mean of 2 exp.
# NEK1 = NEK1 (Homo sapiens, UniProt Q96PY6); assay: ProQinase radiometric kinase panel; conditions: mean of 2 exp.
# SGK1 = SGK1 (Homo sapiens, UniProt O00141); assay: ProQinase radiometric kinase panel; conditions: mean of 2 exp.
# MAPKAPK2 = MAPKAPK2 (Homo sapiens, UniProt P49137); assay: ProQinase radiometric kinase panel; conditions: mean of 2 exp.
# VRK1 = VRK1 (Homo sapiens, UniProt Q99986); assay: ProQinase radiometric kinase panel; conditions: mean of 2 exp.
# KIT = KIT (Homo sapiens, UniProt P10721); assay: ProQinase radiometric kinase panel; conditions: mean of 2 exp.
# Protocol: Gini coefficients were calculated and the Lorenz curve (Fig 3B) was plotted by applying the Microsoft Excel spreadsheet provided by Graczyk [44].
# radiometric protein kinase assays.
# FGF-R3 = FGF-R3 (Homo sapiens, UniProt P22607); assay: ProQinase radiometric kinase panel; conditions: mean of 2 exp.
# MKNK2 = MKNK2 (Homo sapiens, UniProt Q9HBH9); assay: ProQinase radiometric kinase panel; conditions: mean of 2 exp.
# EPHB2 = EPHB2 (Homo sapiens, UniProt P29323); assay: ProQinase radiometric kinase panel; conditions: mean of 2 exp.
# STK23 = STK23 (Homo sapiens, UniProt Q9UPE1); assay: ProQinase radiometric kinase panel; conditions: mean of 2 exp.
# PAK6 = PAK6 (Homo sapiens, UniProt Q9NQU5); assay: ProQinase radiometric kinase panel; conditions: mean of 2 exp.
# IKK-epsilon = IKK-epsilon (Homo sapiens, UniProt Q14164); assay: ProQinase radiometric kinase panel; conditions: mean of 2 exp.
# mTOR = mTOR (Homo sapiens, UniProt P42345); assay: ProQinase radiometric kinase panel; conditions: mean of 2 exp.
# CAMKK1 = CAMKK1 (Homo sapiens, UniProt Q8N5S9); assay: ProQinase radiometric kinase panel; conditions: mean of 2 exp.
# FRK = FRK (Homo sapiens, UniProt P42685); assay: ProQinase radiometric kinase panel; conditions: mean of 2 exp.
# CAMK2A = CAMK2A (Homo sapiens, UniProt Q9UQM7); assay: ProQinase radiometric kinase panel; conditions: mean of 2 exp.
# EPHA3 = EPHA3 (Homo sapiens, UniProt P29320); assay: ProQinase radiometric kinase panel; conditions: mean of 2 exp.
# MYLK = MYLK (Homo sapiens, UniProt Q15746); assay: ProQinase radiometric kinase panel; conditions: mean of 2 exp.
# p38-alpha = p38-alpha (Homo sapiens, UniProt Q16539); assay: ProQinase radiometric kinase panel; conditions: mean of 2 exp.
# AKT1 = AKT1 (Homo sapiens, UniProt P31749); assay: ProQinase radiometric kinase panel; conditions: mean of 2 exp.
# BMX = BMX (Homo sapiens, UniProt P51813); assay: ProQinase radiometric kinase panel; conditions: mean of 2 exp.
# MELK = MELK (Homo sapiens, UniProt Q14680); assay: ProQinase radiometric kinase panel; conditions: mean of 2 exp.
# MAP3K9 = MAP3K9 (Homo sapiens, UniProt P80192); assay: ProQinase radiometric kinase panel; conditions: mean of 2 exp.
# WNK1 = WNK1 (Homo sapiens, UniProt Q9H4A3); assay: ProQinase radiometric kinase panel; conditions: mean of 2 exp.
# VEGF-R1 = VEGF-R1 (Homo sapiens, UniProt P17948); assay: ProQinase radiometric kinase panel; conditions: mean of 2 exp.
# PLK1 = PLK1 (Homo sapiens, UniProt P53350); assay: ProQinase radiometric kinase panel; conditions: mean of 2 exp.
# MUSK = MUSK (Homo sapiens, UniProt O15146); assay: ProQinase radiometric kinase panel; conditions: mean of 2 exp.
# Cell viability XTT assay [2] = type: cell-based; conditions: human, SH-SY5Y cells, read-out: Viability of treated cells relative to untreated control
# IKK-alpha = IKK-alpha (Homo sapiens, UniProt O15111); assay: ProQinase radiometric kinase panel; conditions: mean of 2 exp.
# CDK16/CycY = CDK16/CycY (Homo sapiens, UniProt Q00536); assay: ProQinase radiometric kinase panel; conditions: mean of 2 exp.
# ABL2 = ABL2 (Homo sapiens, UniProt P42684); assay: ProQinase radiometric kinase panel; conditions: mean of 2 exp.
# TRK-A = TRK-A (Homo sapiens, UniProt P04629); assay: ProQinase radiometric kinase panel; conditions: mean of 2 exp.
# VEGF-R3 = VEGF-R3 (Homo sapiens, UniProt P35916); assay: ProQinase radiometric kinase panel; conditions: mean of 2 exp.
# Chain of STK23 (Q9UPE1 whole entry): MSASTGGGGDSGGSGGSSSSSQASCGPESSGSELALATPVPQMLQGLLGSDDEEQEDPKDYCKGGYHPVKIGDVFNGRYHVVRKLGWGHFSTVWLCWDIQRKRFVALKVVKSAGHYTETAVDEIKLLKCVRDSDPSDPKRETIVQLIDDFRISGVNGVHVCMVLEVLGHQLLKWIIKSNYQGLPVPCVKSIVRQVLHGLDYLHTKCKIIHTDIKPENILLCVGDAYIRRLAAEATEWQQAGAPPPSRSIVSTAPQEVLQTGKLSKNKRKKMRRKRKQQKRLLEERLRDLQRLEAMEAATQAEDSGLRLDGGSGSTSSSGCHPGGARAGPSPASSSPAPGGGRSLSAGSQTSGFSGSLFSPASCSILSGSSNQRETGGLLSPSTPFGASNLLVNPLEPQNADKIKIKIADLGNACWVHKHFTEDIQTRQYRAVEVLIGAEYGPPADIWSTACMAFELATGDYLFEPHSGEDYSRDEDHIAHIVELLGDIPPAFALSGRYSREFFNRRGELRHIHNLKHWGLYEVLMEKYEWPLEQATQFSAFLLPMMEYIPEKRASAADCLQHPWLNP
# Chain of NEK1 (Q96PY6 whole entry): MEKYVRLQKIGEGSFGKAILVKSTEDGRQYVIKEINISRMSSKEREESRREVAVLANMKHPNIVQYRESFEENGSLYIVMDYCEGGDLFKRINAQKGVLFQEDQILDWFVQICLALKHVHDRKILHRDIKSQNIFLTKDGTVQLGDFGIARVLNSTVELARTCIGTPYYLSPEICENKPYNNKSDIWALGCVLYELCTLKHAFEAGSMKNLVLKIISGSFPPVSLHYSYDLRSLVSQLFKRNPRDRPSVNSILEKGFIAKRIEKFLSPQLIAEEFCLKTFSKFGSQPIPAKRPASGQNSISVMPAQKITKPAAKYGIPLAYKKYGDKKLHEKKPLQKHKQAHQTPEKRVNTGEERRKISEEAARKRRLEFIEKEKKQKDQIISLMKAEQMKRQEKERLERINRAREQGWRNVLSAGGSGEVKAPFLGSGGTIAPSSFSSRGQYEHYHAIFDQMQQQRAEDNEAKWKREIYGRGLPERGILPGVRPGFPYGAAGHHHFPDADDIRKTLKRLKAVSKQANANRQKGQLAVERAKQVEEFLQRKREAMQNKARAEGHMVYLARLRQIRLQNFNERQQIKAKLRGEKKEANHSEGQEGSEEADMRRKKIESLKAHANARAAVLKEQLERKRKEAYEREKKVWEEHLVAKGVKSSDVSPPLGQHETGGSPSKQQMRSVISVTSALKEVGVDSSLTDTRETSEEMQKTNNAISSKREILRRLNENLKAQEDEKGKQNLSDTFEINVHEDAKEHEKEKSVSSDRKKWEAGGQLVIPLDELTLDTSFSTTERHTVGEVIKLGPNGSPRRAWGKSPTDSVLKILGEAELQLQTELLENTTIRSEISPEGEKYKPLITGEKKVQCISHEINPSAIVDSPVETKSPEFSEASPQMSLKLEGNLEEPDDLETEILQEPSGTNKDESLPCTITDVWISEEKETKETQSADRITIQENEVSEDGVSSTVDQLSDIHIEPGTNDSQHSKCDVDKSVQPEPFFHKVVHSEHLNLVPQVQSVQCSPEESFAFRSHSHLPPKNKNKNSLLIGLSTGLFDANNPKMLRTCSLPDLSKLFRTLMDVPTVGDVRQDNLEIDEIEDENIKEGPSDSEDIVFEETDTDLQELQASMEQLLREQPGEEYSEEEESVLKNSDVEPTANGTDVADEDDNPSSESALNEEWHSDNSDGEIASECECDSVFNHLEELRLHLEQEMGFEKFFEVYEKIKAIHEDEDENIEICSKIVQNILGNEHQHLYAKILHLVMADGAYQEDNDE
# Chain of IKK-epsilon (Q14164 whole entry): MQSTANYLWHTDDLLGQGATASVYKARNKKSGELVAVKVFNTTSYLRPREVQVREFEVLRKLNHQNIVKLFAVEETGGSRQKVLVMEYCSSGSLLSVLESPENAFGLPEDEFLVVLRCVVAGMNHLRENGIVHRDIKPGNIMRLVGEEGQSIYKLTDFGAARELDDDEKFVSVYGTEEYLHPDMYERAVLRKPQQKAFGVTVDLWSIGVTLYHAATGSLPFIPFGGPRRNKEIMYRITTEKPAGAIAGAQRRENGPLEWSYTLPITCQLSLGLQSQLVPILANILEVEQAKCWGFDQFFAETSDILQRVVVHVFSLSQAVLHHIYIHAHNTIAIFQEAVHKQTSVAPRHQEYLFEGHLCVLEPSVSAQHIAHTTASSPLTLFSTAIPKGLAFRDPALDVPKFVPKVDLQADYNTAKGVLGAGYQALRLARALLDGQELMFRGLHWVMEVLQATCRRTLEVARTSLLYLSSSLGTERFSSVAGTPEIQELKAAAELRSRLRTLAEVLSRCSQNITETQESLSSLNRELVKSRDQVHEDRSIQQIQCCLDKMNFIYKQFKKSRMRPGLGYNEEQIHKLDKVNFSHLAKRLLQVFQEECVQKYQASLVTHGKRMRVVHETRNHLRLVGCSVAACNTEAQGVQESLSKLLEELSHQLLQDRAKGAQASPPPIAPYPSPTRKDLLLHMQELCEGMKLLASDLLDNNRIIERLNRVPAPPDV
# Chain of EPHA3 (P29320 21-983): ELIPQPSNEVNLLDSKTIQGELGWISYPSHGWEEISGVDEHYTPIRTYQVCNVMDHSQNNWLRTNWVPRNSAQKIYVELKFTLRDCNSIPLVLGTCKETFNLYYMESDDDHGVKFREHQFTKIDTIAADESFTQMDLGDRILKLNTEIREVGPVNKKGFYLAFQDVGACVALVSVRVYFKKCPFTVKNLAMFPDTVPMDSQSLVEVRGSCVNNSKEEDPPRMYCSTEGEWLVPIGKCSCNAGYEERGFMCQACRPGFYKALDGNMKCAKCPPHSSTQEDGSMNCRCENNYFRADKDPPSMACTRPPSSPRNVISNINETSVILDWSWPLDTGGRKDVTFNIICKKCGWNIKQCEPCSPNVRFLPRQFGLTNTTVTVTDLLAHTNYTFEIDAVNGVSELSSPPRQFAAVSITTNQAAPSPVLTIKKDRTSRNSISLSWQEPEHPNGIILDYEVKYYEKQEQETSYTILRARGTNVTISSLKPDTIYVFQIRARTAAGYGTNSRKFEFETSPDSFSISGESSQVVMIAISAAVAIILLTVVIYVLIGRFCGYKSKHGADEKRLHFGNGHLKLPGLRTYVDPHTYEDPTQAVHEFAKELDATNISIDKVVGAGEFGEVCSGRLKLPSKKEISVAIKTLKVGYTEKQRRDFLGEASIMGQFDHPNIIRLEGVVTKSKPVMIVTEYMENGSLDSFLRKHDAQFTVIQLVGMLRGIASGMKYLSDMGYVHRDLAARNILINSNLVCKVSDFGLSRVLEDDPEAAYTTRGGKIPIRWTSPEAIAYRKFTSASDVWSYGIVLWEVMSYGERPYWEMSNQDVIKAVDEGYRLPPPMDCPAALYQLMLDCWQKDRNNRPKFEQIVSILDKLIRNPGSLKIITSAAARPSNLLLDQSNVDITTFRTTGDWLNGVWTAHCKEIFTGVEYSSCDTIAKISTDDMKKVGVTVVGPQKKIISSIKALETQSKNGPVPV
# Chain of PAK6 (Q9NQU5 whole entry): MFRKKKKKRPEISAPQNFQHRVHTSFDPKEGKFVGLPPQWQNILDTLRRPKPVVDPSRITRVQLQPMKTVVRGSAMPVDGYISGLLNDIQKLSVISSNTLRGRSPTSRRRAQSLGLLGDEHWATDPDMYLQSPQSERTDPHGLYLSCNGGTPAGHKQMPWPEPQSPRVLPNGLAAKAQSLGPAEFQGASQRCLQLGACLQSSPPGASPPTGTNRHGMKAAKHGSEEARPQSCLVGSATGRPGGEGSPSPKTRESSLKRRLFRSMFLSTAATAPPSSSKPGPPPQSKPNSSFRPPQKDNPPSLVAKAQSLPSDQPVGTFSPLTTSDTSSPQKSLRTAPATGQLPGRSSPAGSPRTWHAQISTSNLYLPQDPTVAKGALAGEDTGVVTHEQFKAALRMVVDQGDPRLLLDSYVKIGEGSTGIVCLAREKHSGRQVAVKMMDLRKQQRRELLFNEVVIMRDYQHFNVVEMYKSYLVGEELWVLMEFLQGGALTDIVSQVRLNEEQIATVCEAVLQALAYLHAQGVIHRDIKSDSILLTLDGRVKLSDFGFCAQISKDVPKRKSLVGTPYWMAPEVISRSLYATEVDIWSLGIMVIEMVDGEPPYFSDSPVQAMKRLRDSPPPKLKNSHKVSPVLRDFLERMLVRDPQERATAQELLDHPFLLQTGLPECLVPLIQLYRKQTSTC
# Chain of CAMK2A (Q9UQM7 whole entry): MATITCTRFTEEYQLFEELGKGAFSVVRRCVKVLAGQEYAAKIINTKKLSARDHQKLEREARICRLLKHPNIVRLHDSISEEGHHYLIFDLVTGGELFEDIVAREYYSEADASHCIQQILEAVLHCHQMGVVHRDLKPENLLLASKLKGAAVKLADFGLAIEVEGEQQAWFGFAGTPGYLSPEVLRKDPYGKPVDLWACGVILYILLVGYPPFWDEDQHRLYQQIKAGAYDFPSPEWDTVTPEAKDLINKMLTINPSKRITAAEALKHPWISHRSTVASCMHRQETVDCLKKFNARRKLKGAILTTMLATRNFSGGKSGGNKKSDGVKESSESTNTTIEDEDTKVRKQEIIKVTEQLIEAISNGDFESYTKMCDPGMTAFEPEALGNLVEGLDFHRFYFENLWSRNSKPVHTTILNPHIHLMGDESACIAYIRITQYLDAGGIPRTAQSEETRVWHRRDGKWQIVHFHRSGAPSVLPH
# Chain of p38-alpha (Q16539 whole entry): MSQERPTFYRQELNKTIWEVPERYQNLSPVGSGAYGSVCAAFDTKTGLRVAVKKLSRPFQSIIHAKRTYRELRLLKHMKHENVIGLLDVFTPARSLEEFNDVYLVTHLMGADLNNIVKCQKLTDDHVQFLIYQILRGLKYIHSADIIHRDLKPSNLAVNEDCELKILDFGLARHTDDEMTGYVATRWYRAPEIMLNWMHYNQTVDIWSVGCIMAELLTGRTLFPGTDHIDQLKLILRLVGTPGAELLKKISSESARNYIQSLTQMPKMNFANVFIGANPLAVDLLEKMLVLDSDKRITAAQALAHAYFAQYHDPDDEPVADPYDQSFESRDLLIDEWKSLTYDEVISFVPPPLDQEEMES
structure (smiles),measurement,setting,value
COc1ccc2c3ccnc(Cl)c3n(CC#N)c2c1 [AnnH75],cytotoxicity,HeLa cells,minimal cytotoxicity
same,"viability at 3 days, 1 µM",Cell viability XTT assay [1]; 1 μM,100%
same,"viability at 3 days, 3 µM",Cell viability XTT assay [1]; 3 μM,93%
same,"residual activity at 1 µM, Mean",MKNK1,103 % of control
same,"residual activity at 1 µM, Mean",EPHA4,99 % of control
same,"residual activity at 1 µM, Mean",MET,100 % of control
same,"residual activity at 1 µM, Mean",PDGFR-beta,88 % of control
same,"residual activity at 1 µM, Mean",RPS6KA4,95 % of control
same,"residual activity at 1 µM, Mean",NEK1,101 % of control
same,"residual activity at 1 µM, Mean",SGK1,91 % of control
same,"residual activity at 1 µM, Mean",MAPKAPK2,85 % of control
same,"residual activity at 1 µM, Mean",VRK1,89 % of control
same,"residual activity at 1 µM, Mean",KIT,82 % of control
same,"residual activity at 1 µM, Mean",FGF-R3,107 % of control
same,"residual activity at 1 µM, Mean",MKNK2,92 % of control
same,"residual activity at 1 µM, Mean",EPHB2,99 % of control
same,"residual activity at 1 µM, Mean",STK23,93 % of control
same,"residual activity at 1 µM, Mean",PAK6,93 % of control
same,"residual activity at 1 µM, Mean",IKK-epsilon,95 % of control
same,"residual activity at 1 µM, Mean",mTOR,90 % of control
same,"residual activity at 1 µM, Mean",CAMKK1,89 % of control
same,"residual activity at 1 µM, Mean",FRK,94 % of control
same,"residual activity at 1 µM, Mean",CAMK2A,79 % of control
same,"residual activity at 1 µM, Mean",EPHA3,105 % of control
same,"residual activity at 1 µM, Mean",MYLK,92 % of control
same,"residual activity at 1 µM, Mean",p38-alpha,86 % of control
same,"residual activity at 1 µM, Mean",AKT1,102 % of control
same,"residual activity at 1 µM, Mean",BMX,79 % of control
same,"residual activity at 1 µM, Mean",MELK,87 % of control
same,"residual activity at 1 µM, Mean",MAP3K9,100 % of control
same,"residual activity at 1 µM, Mean",WNK1,98 % of control
same,"residual activity at 1 µM, Mean",VEGF-R1,89 % of control
same,"residual activity at 1 µM, Mean",PLK1,93 % of control
same,"residual activity at 1 µM, Mean",MUSK,101 % of control
same,"viability at 3 days, 1 µM",Cell viability XTT assay [2]; 1 μM,89%
same,"viability at 3 days, 3 µM",Cell viability XTT assay [2]; 3 μM,73%
same,"residual activity at 1 µM, Mean",IKK-alpha,60 % of control
same,"residual activity at 1 µM, Mean",CDK16/CycY,90 % of control
same,"residual activity at 1 µM, Mean",ABL2,96 % of control
same,"residual activity at 1 µM, Mean",TRK-A,84 % of control
same,"residual activity at 1 µM, Mean",VEGF-R3,93 % of control
